Results from patent publication US7910111B2, “Inhibitors of N-ethylmaleimide sensitive factor” (The Johns Hopkins University, priority 2003, dated 2011).
No end group written: not given here.

Columns and labels:
[1] = system: mice; assay: myocardial infarction (coronary ligation/reperfusion) in mice; format: in vivo
Protocol: The ability of the fusion peptides of the present invention to impact cardiac infraction was investigated. Mice were pre-treated intravenously with vehicle or 5 ug/mouse TAT-NSF700 (SEQ ID NO: 8) peptide 15 min prior to infarction. Myocardial infarctions were created in mice by ligation of the left anterior descending coronary artery. Myocardial ischemia was maintained for 35 minutes, and then the ligation of the coronary artery was released, and reperfusion continued for 24 h.
The mice were then sacrificed and the size of the myocardial infarction was quantitated as previously done (Jones S P, Greer J J, Kakkar A K, Ware P D, Turnage R H, Hicks M, van Haperen R, de Crom R, Kawashima S, Yokoyama M, Lefer D J. Am J Physiol Heart Circ Physiol. 2004 January; 286(1):H276-82. Epub 2003 Sep. 11.). The area at risk (AAR) was measured with Evans blue dye, the left ventricle (LV) area was measured by planimetery, and the infarct area (INF) was measured with TTC staining. There were 7 mice per group.

[2] = target: T1, recombinant NSF (Cricetulus griseus, UniProt P18708); assay: NSF ATPase assay (coupled colorimetric assay); format: biochemical
T1 construct: RGS-(His)6 (N); made in house; host or cells: bacteria
Protocol: The effect of NO upon NSF activity was next explored, since NO inhibits Weibel-Palade body exocytosis, and since NSF regulates Weibel-Palade body exocytosis. The effect of NO upon the ATPase activity of NSF was first examined. DEA-NONOate was added to recombinant NSF, and the ATPase activity of NSF was measured.
(§1) The ATPase activity of NSF was measured by a coupled assay, in which ATP utilization is linked to the pyruvate kinase reaction, which generates pyruvate, which in turn is measured continuously with lactate dehydrogenase (Huang and Hackney, 1994). Recombinant NSF (0.2 μg/μl) was pre-treated with buffer or DEA or DEA-NONOate or NEM for 10 min at 22° C. ATPase reaction buffer (100 mM HEPES buffer, pH 7.0, 100 mM KCl, 10 mM MgCl2, 5 mM CaCl2, 10 mM ATP, 5 mM phosphoenol pyruvate, 50 U lactate dehydrogenase, and 50 U pyruvate kinase) was added to the mixture, followed by 10 μl of NADH (2 mg/ml in 1% sodium bicarbonate). The mixture was incubated for 10 min at 22° C., and the absorbance was measured at 340 nm.
The effect of the TAT-NSF peptide inhibitors upon the ability of NSF to hydrolyze ATP was measured. 10 μM TAT-NSF peptides was added to recombinant NSF, and the hydrolysis of ATP was measured. All 5 TAT-NSF peptides inhibited NSF ATPase activity (FIG. 8A). […] The effects of TAT-NSF81 (SEQ ID NO: 6) upon NSF were further defined. TAT-NSF81 (SEQ ID NO: 6) inhibits NSF ATPase activity in a dose-dependent manner with an IC50% between 1-10 μM (FIG. 8B).
as §1, with “TAT-NSF peptides” for “DEA or DEA-NONOate or NEM”

[3] = system: human aortic endothelial cells (HAEC); conditions: for effect of peptide on thrombin induced vWF release: HAEC incubated 20 min with peptide; for effect on thrombin stimulated vWF release: HAEC pre-treated with reagent, thrombin 1 U/ml 1 h; for effect on thrombin induced vWF release, dose response: HAEC pre-treated with increasing amounts, DEA-NONOate 10 min, DETA-NONOate 16 h, SNAP 6 h, NEM 1 h, L-NAME 16 h
Protocol: To explore the effect of NO upon granule exocytosis, thrombin induced exocytosis of Weibel-Palade bodies from human aortic endothelial cells (HAEC) which release von Willebrand's Factor (vWF) was studied. HAEC was pre-treated with an NO donor 2-(N,N-diethylamino)-diazenolate-2-oxide (DEA-NONOate) 10 mM or with DEA as a control, stimulated the cells with thrombin 1 U/ml for 1 h, and the amount of vWF released into the media was then measured. […] HAEC was then pre-treated with increasing amounts of various NO donors, including a rapidly releasing NO donor DEA-NONOate for 10 min, a slowly releasing NO donor DETA-NONOate for 16 h, or a nitrosothiol S-nitroso-penicillamine (SNAP) for 6 h; alternatively, cells were treated with NEM for 1 h.
The role of endogenous NO in the regulation of Weibel-Palade body exocytosis was then explored. HAEC was pre-treated with L-NAME for 16 h in order to inhibit endogenous NOS, and then the cells were stimulated with 1 U/ml thrombin for 1 h and vWF release was measured. […] HAEC was next pre-treated with vascular endothelial growth factor (VEGF) in order to activate endogenous NOS3. Cells were incubated with 50 ng/ml VEGF or control for 2 h, and then stimulated with thrombin.
A peptide inhibitor of NSF that crosses cell membranes was designed. This peptide, designated TAT-NSF222, includes the protein transduction domain of HIV TAT (residues 47-57) previously shown to transduce polypeptides into cells (Becker-Hapak et al., 2001), fused to a fragment of NSF (residues 222-243) previously shown to inhibit NSF (Schweizer et al., 1998). […] HAEC were then incubated for 20 min with TAT-NSF222, or with a control peptide TAT-NSF222scr that consisted of the intact TAT domain followed by the amino acid residues of NSF 222-243 in a scrambled order. HAEC were transduced with TAT-NSF peptides, treated with media or thrombin, and the amount of vWF released into the media was measured by ELISA.
Since NSF plays a general role in vesicle trafficking, permanent inactivation of NSF would slow vesicular trafficking in general. However, local production of NO at the plasma membrane and reversible nitrosylation of NSF could provide spatial regulation of NSF.
Human aortic endothelial cells (HAEC) and EGM-2 media were obtained from Clonetics (Walkersville, Md.). HAEC were pre-treated with NO donors, washed, stimulated with 1 U/mil of thrombin, and the amount of vWF released into the media was measured by an ELISA (American Diagnostica, Greenwich, Conn.). HAEC were permeabilized by incubation with 10 U/well of SLO (Sigma) in PBS pH 7.4 for 15 min at 37° C. (Walev et al., 2001). Some cells were incubated with 20-200 μg/ml of antibodies or with 100 μg/ml of recombinant NSF. Cells were then resealed by incubation with EGM-2 media for 4 h at 37° C., washed with EGM-2 media, and stimulated with thrombin as above.
The ability of TAT-NSF to affect exocytosis from cells was investigated. Endothelial cells release vWF by exocytosis when stimulated by thrombin. Accordingly, endothelial cells were incubated with increasing amounts of TAT-NSF peptides for 20 min, then treated with 1 U/ml thrombin, and the amount of vWF released into the media was measured by ELISA.
Human aortic endothelial cells (HAEC) and EGM-2 media were obtained from Clonetics (Walkersville, Md.). HAEC were pre-treated with TAT-NSF peptides for 20 min, washed, stimulated with 1 U/ml of thrombin, and the amount of vWF released into the media was measured by an ELISA (American Diagnostica, Greenwich, Conn.).

[4] = system: mice; assay: platelet adherence to mesenteric venules in mice (intravital microscopy); format: in vivo
Protocol: To further examine the physiological relevance of NO regulation of Weibel-Palade body exocytosis, the effect of endogenous NO upon platelet interactions with endothelial cells in vivo was measured. Platelet rolling, or transient adherence of platelets to the walls of blood vessels, is mediated by vWF released by exocytosis (Andre et al., 2000). Inhibition of endogenous NO synthesis might permit an increase in Weibel-Palade body exocytosis, an increase in released vWF, and an increase in platelet adherence to venule walls. […] Intravital microscopy was next employed to explore the effects of endogenous NO upon platelet rolling in vivo. Anesthetized mice were pre-treated or not with L-NAME, and then transfused with calcein-AM labeled platelets. The mesentery was externalized, superfused with histamine, and intravital microscopy was used to record interactions of fluorescently labeled platelets with mesenteric venules. Platelets were classified as adherent if they were transiently captured by the endothelium and then translocated in a stop-and-go fashion for a minimum of 2 seconds. […]
Measurements of platelet adherence in mice was adapted from Andre et al. (Andre et al., 2000). […] Platelet adherence was expressed as the number of adhering fluorescent cells per square millimeter of venular surface, calculated from the diameter and length of segment viewed.

[5] = system: mice; assay: bleeding time in mice after tail amputation (Example 1); format: in vivo; conditions: intravenous; for effect on bleeding time: tail amputated after 45 min
Protocol: To explore the physiological relevance of NSF regulation of Weibel-Palade body exocytosis, the effect of the NSF inhibitory peptide upon the bleeding time in mice was measured. Anesthetized mice were injected intravenously with saline, TAT-NSF222, or the control peptide TAT-NSF222scr; and after 45 min the distal 5 mm of tail was amputated and the bleeding time measured. […] In fact, 3 of the 6 mice treated with the TAT-NSF222 peptide had bleeding times in excess of 20 min.
Measurement of bleeding time in mice was performed as previously described (Weiss et al., 2002). Mice were anesthetized with an intramuscular injection of ketamine and xylazine, and 5 mm of the distal tip of the tail was amputated. The tail was blotted with filter paper every 5 sec until the paper was no longer stained. If the animals bled for 20 min, the experiment was stopped, and the bleeding time was recorded as 20 min.

[6] = target: T2, NSF disassembly of the SNARE complex (Cricetulus griseus, UniProt P18708); format: biochemical; conditions: recombinant NSF, α-SNAP, GST-SNAREs, ATP; TAT-NSF peptides 1 μM in Example 2
T2 construct: made in house; host or cells: bacteria (NSF, alpha-SNAP); BL21 cells (GST-SNAREs)
T2 sequence (P18708 whole entry): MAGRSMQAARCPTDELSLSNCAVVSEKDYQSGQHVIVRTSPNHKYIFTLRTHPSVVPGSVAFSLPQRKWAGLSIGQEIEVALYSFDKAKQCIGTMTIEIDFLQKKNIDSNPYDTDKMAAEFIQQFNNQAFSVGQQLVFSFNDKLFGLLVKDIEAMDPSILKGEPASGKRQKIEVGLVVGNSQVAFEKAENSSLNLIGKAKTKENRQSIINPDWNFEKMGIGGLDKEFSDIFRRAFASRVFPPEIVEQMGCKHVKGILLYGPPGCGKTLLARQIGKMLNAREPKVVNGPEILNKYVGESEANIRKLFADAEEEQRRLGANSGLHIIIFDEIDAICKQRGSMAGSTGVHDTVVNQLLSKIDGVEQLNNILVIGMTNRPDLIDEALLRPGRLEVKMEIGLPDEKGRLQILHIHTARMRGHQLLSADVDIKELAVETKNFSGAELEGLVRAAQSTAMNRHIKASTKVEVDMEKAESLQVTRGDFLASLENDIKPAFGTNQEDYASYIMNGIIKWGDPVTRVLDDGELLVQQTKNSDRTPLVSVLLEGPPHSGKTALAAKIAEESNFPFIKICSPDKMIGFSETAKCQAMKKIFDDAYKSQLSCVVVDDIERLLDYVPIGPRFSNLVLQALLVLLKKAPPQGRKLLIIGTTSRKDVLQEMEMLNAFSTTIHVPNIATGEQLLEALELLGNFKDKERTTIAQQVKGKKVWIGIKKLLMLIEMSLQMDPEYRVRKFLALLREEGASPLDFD
T2 sequence (P81125 whole entry partner): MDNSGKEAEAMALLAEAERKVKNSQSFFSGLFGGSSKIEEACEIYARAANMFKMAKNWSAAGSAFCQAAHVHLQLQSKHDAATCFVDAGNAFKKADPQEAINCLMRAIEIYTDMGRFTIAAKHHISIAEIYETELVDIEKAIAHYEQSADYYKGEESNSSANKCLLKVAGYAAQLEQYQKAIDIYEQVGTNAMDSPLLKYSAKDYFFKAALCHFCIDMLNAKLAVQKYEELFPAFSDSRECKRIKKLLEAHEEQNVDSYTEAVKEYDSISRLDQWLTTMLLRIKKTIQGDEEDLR
T2 sequence (Q12846 whole entry partner): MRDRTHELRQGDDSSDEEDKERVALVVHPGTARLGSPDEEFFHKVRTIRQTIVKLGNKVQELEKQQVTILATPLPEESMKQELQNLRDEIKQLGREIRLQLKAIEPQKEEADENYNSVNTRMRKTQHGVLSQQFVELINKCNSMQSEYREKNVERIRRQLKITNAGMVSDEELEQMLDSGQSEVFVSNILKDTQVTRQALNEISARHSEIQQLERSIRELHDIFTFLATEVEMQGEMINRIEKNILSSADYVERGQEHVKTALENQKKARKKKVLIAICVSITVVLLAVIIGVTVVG
T2 sequence (Q15836 whole entry partner): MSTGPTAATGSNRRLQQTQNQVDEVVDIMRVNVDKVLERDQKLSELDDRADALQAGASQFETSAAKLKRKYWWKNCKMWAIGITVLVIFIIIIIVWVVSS
T2 sequence (O00161 whole entry partner): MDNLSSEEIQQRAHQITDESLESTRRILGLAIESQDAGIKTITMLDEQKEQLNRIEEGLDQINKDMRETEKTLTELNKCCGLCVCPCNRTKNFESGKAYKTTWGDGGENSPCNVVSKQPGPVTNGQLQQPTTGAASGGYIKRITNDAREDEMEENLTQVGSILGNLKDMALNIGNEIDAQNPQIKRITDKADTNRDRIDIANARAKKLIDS
Protocol: Accordingly, recombinant NSF was pre-treated with the NO donor DEA-NONOate 1 mM for 10 min. Pre-treated NSF, α-SNAP, and detergent extracts of HAEC membranes were then mixed in the presence of 0.5 mM ATP or ATP-γS. These reactions were then fractionated by sucrose density gradient ultracentrifugation, fractions were collected from the bottom of the tube, and immunoblotted with antibody to syntaxin-4.
The effect of NO upon NSF disassembly of purified, recombinant SNARE molecules was next examined. Recombinant (His)6-NSF was pre-treated or not with 1 mM DEA-NONOate for 10 min, and then mixed with and (His)6-a-SNAP and recombinant SNARE fusion polypeptides identified in endothelial cells: GST-syntaxin-4, VAMP-3, and SNAP-23. ATP or ATP-γS was added, the mixture was precipitated with glutathione-sepharose beads, and precipitated proteins were fractionated by SDS-PAGE and immunoblotted with antibody to the NSF tag.
The disassembly activity of NSF was measured by a co-precipitation assay (Pevsner et al., 1994). […] This mixture of NSF and SNARE polypeptides was then incubated in binding buffer (4 mM HEPES pH 7.4, 0.1M NaCl, 1 mM EDTA, 3.5 mM CaCl2, 3.5 mM MgCl2, and 0.5% Nonidet P-40) and glutathione-sepharose beads for 1 h at 4° C. with rotation. The beads were washed with binding buffer 4 times, mixed with SDS-PAGE sample buffer, boiled for 3 min, and analyzed by immunoblotting.
The effect of the TAT-NSF peptide inhibitors upon the ability of NSF to separate from SNARE complexes was measured. Recombinant NSF was pre-treated with 1 μM TAT-NSF peptides, and recombinant GST-SNARE polypeptides were then added, including syntaxin-4, SNAP-23, and VAMP-3. […]
The effect of TAT-NSF peptides on NSF disassembly activity was determined. […]
TAT-NSF81 (SEQ ID NO: 6) inhibition of NSF disassembly activity was also investigated. […] ATP was added, GST-SNAREs were precipitated with glutathione-sepharose, and the precipitant was analyzed for the co-precipitation of NSF.
The disassembly activity of NSF was measured by a co-precipitation assay (Pevsner et al., 1994). […]

T1 sequence (P18708 whole entry): as the sequence (P18708 whole entry) above

“YGRKKRRQRRR-GGG-LLDYVPIGPRFSNLVLQALLVL (YGRKKRRQRRRGGGLLDYVPIGPRFSNLVLQALLVL; fusion peptide) [TAT-NSF700]” was tested, and the “size of the infarct” value ([1]; mice, 5 ug/mouse i.v. 15 min prior to infarction, 35 min ischemia, 24 h reperfusion) was 44%+/−3, the “absolute reduction in infarct size” value ([1]; vs vehicle treated mice) was 12% and the “relative reduction in infarct size” value ([1]; vs vehicle treated mice) was 21%. The “effect on NSF ATPase activity at 10 μM peptide” value ([2]; 10 μM TAT-NSF peptides, recombinant NSF) was “more effective than the other peptides” and the “effect of peptide on thrombin induced vWF release” value [3] was “most effective at inhibiting release of vWF”.

In the case of “vascular endothelial growth factor [VEGF]”, the “effect on thrombin stimulated vWF release” value [3] is reported as “decreases thrombin stimulated vWF release”.

In the case of `COC(=O)[C@@H](N)CCCNC(=N)N[N+](=O)[O-]` [L-NAME, L-nitroarginine-methyl-ester], the “effect on thrombin induced vWF release, dose response” value (shortened to “effect … dose response”) [3] is reported as “increases thrombin stimulated vWF release in a dose-dependent manner”, the “effect on thrombin stimulated vWF release” value [3] is reported as “increases the amount of vWF released” and the “effect on VEGF inhibition of thrombin stimulated vWF release” value ([3]; L-NAME 1 mM, VEGF 50 ng/ml 2 h) is reported as “blocks the effects of VEGF treatment”. For the same compound, the “histamine induced platelet interactions with the venule wall, frequency vs non-treated mice” value ([4]; 5 mg/kg L-NAME intravenously, histamine superfusion) was “more than double” and the “time of peak platelet-venule interactions after histamine treatment” value ([4]; L-NAME pre-treated) was 6 min.

In the case of `CC(=N)NCc1cccc(CN)c1` [1400W], the “effect on thrombin stimulated vWF release” value [3] is reported as “had no effect”.

With “YGRKKRRQRRR-GGG-ENSFRFLADIFPAKAFPVRFE (YGRKKRRQRRRGGGENSFRFLADIFPAKAFPVRFE; fusion peptide) [TAT-NSF222scr]” the “effect on bleeding time” value [5] was “has no effect upon bleeding time”.

For `CCN1C(=O)C=CC1=O` [NEM], the “effect … dose response” value [3] was “inhibits thrombin induced vWF release”.

“YGRKKRRQRRRGGGALYSFDKAKQCIGTMTIEID [TAT-NSF81]” showed an IC50 [2] of 1 to 10 µM and an IC50 ([3]; read-out: IC50% for inhibition of endothelial exocytosis (vWF release), HAEC, 20 min pre-treatment, thrombin 1 U/ml) of 1 to 10 µM.

For `NCCN(CCN)/[N+]([O-])=N/O` [DETA-NONOate, dithylenetriamine (DETA)-NONOate], the “effect … dose response” value [3] was “inhibits thrombin induced vWF release”.

For “YGRKKRRQRRR-GGG-GLDKEFNSIFRRAFASRVFPPE (YGRKKRRQRRRGGGGLDKEFNSIFRRAFASRVFPPE; fusion peptide) [TAT-NSF222]”, the “mice with bleeding times in excess of 20 min” value ([5]; 45 min) was 3 of the 6, the “effect on bleeding time” value [5] was “dramatically prolongs the bleeding time” and the “effect on NSF ATPase activity” value ([2]; recombinant NSF) was “inhibits both NSF ATPase activity”. For the same compound, the “effect of peptide on thrombin induced vWF release” value [3] was “inhibits vWF release in a dose-dependent manner” and the “effect on NSF disassembly activity” value [6] was “also NSF disassembly activity”.
